Results on 26 compounds are retold here after ChEMBL document CHEMBL1131422, “N-(2-Benzoylphenyl)-L-tyrosine PPARgamma agonists. 1. Discovery of a novel series of potent antihyperglycemic and antihyperlipidemic agents” (J Med Chem, 1998).

SMILES strings stand for the structures. The source made the active and inactive calls. The rule behind the calls is not given here. A value given as a limit tells only on which side of the number the result lay.

For the first experiment, the target named is T1, Peroxisome proliferator-activated receptor gamma (Homo sapiens, UniProt P37231).
T1 sequence (P37231 whole entry): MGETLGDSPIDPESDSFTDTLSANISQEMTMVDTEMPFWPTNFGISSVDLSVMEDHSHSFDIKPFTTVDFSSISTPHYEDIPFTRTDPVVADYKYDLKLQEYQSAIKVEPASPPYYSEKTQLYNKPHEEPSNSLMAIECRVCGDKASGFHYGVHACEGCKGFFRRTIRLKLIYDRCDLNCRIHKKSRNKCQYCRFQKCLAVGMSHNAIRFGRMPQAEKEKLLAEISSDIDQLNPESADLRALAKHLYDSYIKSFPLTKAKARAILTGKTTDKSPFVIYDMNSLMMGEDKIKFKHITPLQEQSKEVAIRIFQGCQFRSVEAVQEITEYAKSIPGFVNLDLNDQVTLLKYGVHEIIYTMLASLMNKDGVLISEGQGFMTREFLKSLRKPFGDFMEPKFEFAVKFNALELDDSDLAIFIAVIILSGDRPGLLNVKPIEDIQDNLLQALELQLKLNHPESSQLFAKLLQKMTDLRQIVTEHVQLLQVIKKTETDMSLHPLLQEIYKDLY
Description: Activation of peroxisome proliferator activated receptor gamma measured by induction of 50% of maximum alkaline phosphatase activity, transfection assay in CV-1 cells
For the compound `CN(CCOc1ccc(CC(Nc2ccccc2Oc2ccccc2)C(=O)O)cc1)c1nc2ccccc2o1` (stereo unspecified), the half-maximal effective concentration (EC50) was 107 nM. Same read-out and setting: the value for `CC(/C=C(\O)c1ccccc1)=N\[C@@H](Cc1ccc(OCc2ccccc2)cc1)C(N)=O` was 490 nM.

In turn, `CN(CCOc1ccc(CC(Nc2cccc3c2C(=O)c2ccccc2-3)C(=O)O)cc1)c1nc2ccccc2o1` (stereo unspecified) had an EC50 of 490 nM. This lies in the sub-micromolar range.

`CCc1ccc(CCOc2ccc(C[C@H](Nc3ccccc3C(=O)c3ccccc3)C(=O)O)cc2)nc1` had an EC50 of 50.1 nM. Against the preceding compound, the EC50 is about 9.8-fold lower. On to `CN(CCOc1ccc(CC(Oc2ccccc2C(=O)c2ccccc2)C(=O)O)cc1)c1nc2ccccc2o1` (stereo unspecified), for which the midpoint of the response, the EC50, lay at 933 nM. Against the preceding compound, the EC50 is about 19-fold higher. On the same count and under the same terms, the value for `O=C(c1ccccc1)c1ccccc1N[C@@H](Cc1ccc(OCc2ccccc2)cc1)C(=O)O` was 16600 nM. Compound `CC1(COc2ccc(C[C@H](Nc3ccccc3C(=O)c3ccccc3)C(=O)O)cc2)CCCCC1` came in with a half-maximal effective concentration (EC50) of 617 nM. `CN(CCOc1ccc(CC(Nc2ccccc2C(O)c2ccccc2)C(=O)O)cc1)c1ccccn1` (stereo unspecified) showed a 50% effective concentration (EC50) of 447 nM. The EC50 values of the last two compounds are within 1.5-fold of each other. The compound `Cc1c(C)c2c(c(C)c1O)CCC(C)(COc1ccc(C[C@H](Nc3ccccc3C(=O)c3ccccc3)C(=O)O)cc1)O2` (stereo partly specified) showed an EC50 of 9.12 nM. Still for that read-out and setting: the value for `N[C@@H](Cc1ccc(OCc2ccccc2)cc1)C(=O)O` was 2510 nM. Still for that read-out and setting: the figure for `COC(=O)[C@H](Cc1ccc(OCc2ccccc2)cc1)/N=C(C)/C=C(\O)c1ccccc1` is 692 nM; for `Cc1oc(-c2ccccc2)nc1CCOc1ccc(CC2SC(=O)NC2=O)cc1` (stereo unspecified) it is 3.16 nM; for `O=C(O)[C@H](Cc1ccc(OCc2ccccc2)cc1)/N=C1\CCCC\C1=C(\O)c1ccccc1` it is 10200 nM.

Take `CN(CCOc1ccc(CC(Nc2ccccc2S(=O)(=O)c2ccccc2)C(=O)O)cc1)c1nc2ccccc2o1` (stereo unspecified): the midpoint of the response, the EC50, lay at 1820 nM.

`CC(/C=C(\O)c1ccccc1)=N\[C@@H](Cc1ccc(OCc2ccccc2)cc1)C(=O)O` (stereo in doubt; 2) showed an EC50 of 229 nM. As for `CN(CCOc1ccc(CC(Nc2ccccc2/C(=N/N)c2ccccc2)C(=O)O)cc1)c1ccccn1` (stereo unspecified), a half-maximal response (EC50) required 851 nM. Same read-out and setting: the figure for `CN(CCOc1ccc(CC(Sc2ccccc2C(=O)c2ccccc2)C(=O)O)cc1)c1nc2ccccc2o1` (stereo unspecified) is 1380 nM; for `CN(CCOc1ccc(CC(Nc2ccccc2C(=O)Cc2ccccc2)C(=O)O)cc1)c1nc2ccccc2o1` (stereo unspecified) it is 28.8 nM; for `CC(/C=C(\O)c1ccccc1)=N\[C@@H](Cc1ccc(OCc2ccccc2)cc1)C(=O)O` (stereo in doubt) it is 21900 nM.

In another experiment the target is T2, Peroxisome proliferator-activated receptor gamma (Homo sapiens) (UniProt P37231).
T2 sequence (whole entry): T1 sequence (P37231 whole entry)
As to the kind of experiment: Compound was tested functionally in vitro for inducing 50% of the maximum alkaline phosphatase activity (Transactivation) against Peroxisome proliferator activated receptor gamma using transfection assay in CV-1 cells; IA = Inactive at 10e-4 M. It is filed as functional, cell-based.
Regarding `COC(=O)[C@H](Cc1ccc(OCc2ccccc2)cc1)/N=C(\C)C1=C(O)c2ccccc2CC1`, the “Log EC50” value was “inactive”. `COC(=O)[C@H](Cc1ccc(OCc2ccccc2)cc1)Nc1ccccc1C(=O)Nc1ccccc1`: the “Log EC50” value is “inactive”. Turning to `O=C(O)[C@H](Cc1ccc(OCc2ccccc2)cc1)Nc1ccccc1Cc1ccccc1`, the “Log EC50” value was “inactive”. On the same count and under the same terms, the value for `O=C(c1ccccc1)c1ccc(N[C@@H](Cc2ccc(OCc3ccccc3)cc2)C(=O)O)cc1` was “inactive”; that for `COC(=O)[C@H](Cc1ccc(OCc2ccccc2)cc1)Nc1ccccc1C(=O)OCc1ccccc1` was “inactive”. Still for that read-out and setting: the value for `O=C(c1ccccc1)c1cccc(N[C@@H](Cc2ccc(OCc3ccccc3)cc2)C(=O)O)c1` was “inactive”; that for `C/C(O)=C/C(C)=N/[C@@H](Cc1ccc(OCc2ccccc2)cc1)C(=O)O` was “inactive”.

Another experiment deals with T1, Peroxisome proliferator-activated receptor gamma. The source holds these as a separate data set.
Description: In vitro binding to peroxisome proliferator activated receptor gamma (PPAR gamma) using [3H]-BRL 49653 as radioligand in scintillation proximity assay (SPA)
`CN(CCOc1ccc(CC(Nc2ccccc2Oc2ccccc2)C(=O)O)cc1)c1nc2ccccc2o1` (stereo unspecified) had a Ki of 3.72 nM. On the same count and under the same terms, the figure for `CC(/C=C(\O)c1ccccc1)=N\[C@@H](Cc1ccc(OCc2ccccc2)cc1)C(N)=O` is 1320 nM; for `COC(=O)[C@H](Cc1ccc(OCc2ccccc2)cc1)/N=C(\C)C1=C(O)c2ccccc2CC1` it is greater than 3160 nM. Take `CN(CCOc1ccc(CC(Nc2cccc3c2C(=O)c2ccccc2-3)C(=O)O)cc1)c1nc2ccccc2o1` (stereo unspecified): the affinity, expressed as Ki, was 85.1 nM. Same read-out and setting: the figure for `COC(=O)[C@H](Cc1ccc(OCc2ccccc2)cc1)Nc1ccccc1C(=O)Nc1ccccc1` is greater than 3160 nM; for `CCc1ccc(CCOc2ccc(C[C@H](Nc3ccccc3C(=O)c3ccccc3)C(=O)O)cc2)nc1` it is 6.46 nM; for `CN(CCOc1ccc(CC(Oc2ccccc2C(=O)c2ccccc2)C(=O)O)cc1)c1nc2ccccc2o1` (stereo unspecified) it is 32.4 nM. Same read-out and setting: the figure for `O=C(c1ccccc1)c1ccccc1N[C@@H](Cc1ccc(OCc2ccccc2)cc1)C(=O)O` is 162 nM; for `CC1(COc2ccc(C[C@H](Nc3ccccc3C(=O)c3ccccc3)C(=O)O)cc2)CCCCC1` it is 51.3 nM. `O=C(O)[C@H](Cc1ccc(OCc2ccccc2)cc1)Nc1ccccc1Cc1ccccc1` gave an inhibition constant (Ki) greater than 3160 nM.

The compound `O=C(c1ccccc1)c1ccc(N[C@@H](Cc2ccc(OCc3ccccc3)cc2)C(=O)O)cc1` showed a Ki of 1260 nM. On the same count and under the same terms, the figure for `COC(=O)[C@H](Cc1ccc(OCc2ccccc2)cc1)Nc1ccccc1C(=O)OCc1ccccc1` is greater than 3160 nM. The same measure, in the same setting: the figure for `O=C(c1ccccc1)c1cccc(N[C@@H](Cc2ccc(OCc3ccccc3)cc2)C(=O)O)c1` is greater than 3160 nM; for `Cc1c(C)c2c(c(C)c1O)CCC(C)(COc1ccc(C[C@H](Nc3ccccc3C(=O)c3ccccc3)C(=O)O)cc1)O2` (stereo partly specified) it is 5.25 nM. Same read-out and setting: the figure for `N[C@@H](Cc1ccc(OCc2ccccc2)cc1)C(=O)O` is greater than 3160 nM. With `COC(=O)[C@H](Cc1ccc(OCc2ccccc2)cc1)/N=C(C)/C=C(\O)c1ccccc1`, the Ki was 759 nM. Regarding `Cc1oc(-c2ccccc2)nc1CCOc1ccc(CC2SC(=O)NC2=O)cc1` (stereo unspecified), the affinity, expressed as Ki, was 4.27 nM. On the same count and under the same terms, the figure for `O=C(O)[C@H](Cc1ccc(OCc2ccccc2)cc1)/N=C1\CCCC\C1=C(\O)c1ccccc1` is 794 nM; for `C/C(O)=C/C(C)=N/[C@@H](Cc1ccc(OCc2ccccc2)cc1)C(=O)O` it is 1950 nM. On the same count and under the same terms, the value for `CN(CCOc1ccc(CC(Nc2ccccc2S(=O)(=O)c2ccccc2)C(=O)O)cc1)c1nc2ccccc2o1` (stereo unspecified) was 123 nM; that for `CC(/C=C(\O)c1ccccc1)=N\[C@@H](Cc1ccc(OCc2ccccc2)cc1)C(=O)O` (stereo in doubt; 2) was 11.7 nM. Still for that read-out and setting: the value for `CN(CCOc1ccc(CC(Nc2ccccc2/C(=N/N)c2ccccc2)C(=O)O)cc1)c1ccccn1` (stereo unspecified) was 162 nM. The compound `CN(CCOc1ccc(CC(Sc2ccccc2C(=O)c2ccccc2)C(=O)O)cc1)c1nc2ccccc2o1` (stereo unspecified) had a Ki of 33.1 nM. Same read-out and setting: the figure for `CN(CCOc1ccc(CC(Nc2ccccc2C(=O)Cc2ccccc2)C(=O)O)cc1)c1nc2ccccc2o1` (stereo unspecified) is 3.31 nM; for `CC(/C=C(\O)c1ccccc1)=N\[C@@H](Cc1ccc(OCc2ccccc2)cc1)C(=O)O` (stereo in doubt) it is greater than 3160 nM.
